{
  "source": "patent US20260207670A1",
  "about": "“STABILIZED BLOOD DERIVED COMPOSITION USING ANTIFIBRINOLYTIC AGENTS” (priority 2022, published 2026)",
  "key": {"SOX9 gene": {"tested_on": "SOX9 gene", "assay": "RT-PCR of SOX9 gene expression in the rabbit osteoarthritis model", "format": "in vivo", "details": "p=0.36 (TXA)", "excerpt": "(§1) The measurement of the expression of the genes responsible for the cell differentiation is found to be important in assessing the potential regenerative of the therapy tested. The process of tissue repair involves the overexpression of the genes that are involved in the form of messenger RNA (mRNA) which will be essential for synthesis of proteins necessary for wound healing and differentiation. Therefore, quantification of the mRNA of such a gene will reflect the efficiency and the intensity of tissue repair. Based on this principle, in the rabbit osteoarthritis model of Example 3, RT-PCR was carried out in order to quantify two genes that are correlated to repair and differentiation hyaline cartilage: the COL II gene coding for the synthesis of collagen II; and the SOX9 gene coding for the differentiation mechanisms chondrocyte."}, "PRP fibrin clot": {"tested_on": "PRP fibrin clot", "assay": "Speed of PRP fibrin clot disintegration (PRP gel disc diameter)"}, "[1]": {"tested_on": "rabbit model of osteoarthritis", "assay": "Arthrosis rabbit model: radiological, macroscopic and histological scores", "format": "in vivo", "method": "Rabbits showing characteristic signs of osteoarthritis (as described in Guingamp et al., 1997; confirmed with the sacrifice of two rabbits on day 15 after induction of osteoarthritis and histology), were injected with a treatment solution as described below. The rabbits were sacrificed after 75 days and radiological observation, macroscopic observation, histological observation of the cartilage, histological observation of the synovium, histological observation of the menisci were carried out.\nThe rabbits were treated with either: • 1. PRP alone; or • 2. […] Physiological serum (saline solution, a placebo)\nThe limbs were examined radiologically by two orthogonal views (anteroposterior and medio-lateral) performed using a SAMSUNG XGO® model GU60 digital radiography system (Samsung® Electronics Co, Ltd; Korè) according to radiological constants following: Voltage: 52 kV; Intensity: 100 mA; and Load: 5 mAs. The radiographs were examined blindly by two observers. The degenerative changes are similar between the two subgroups of group control (physiological serum and TXA alone). […] This is explained by the fact that tranexamic acid prevents the destruction of the fibrin network within the joint space and allows a prolonged biological action."}, "COL II gene": {"tested_on": "COL II gene", "assay": "RT-PCR of COL II gene expression in the rabbit osteoarthritis model", "format": "in vivo", "details": "p=0.12 (TXA), p=3.9*10-8 (PRP alone), p=2.1*10-6 (PRP+TXA)", "excerpt": "as §1"}},
  "data": [
    {"compound": "NC[C@H]1CC[C@H](C(=O)O)CC1", "note": "[TXA, tranexamic acid]", "values": [
      {"measurement": "expression of SOX9 gene (RQ) compared to placebo", "setting": "SOX9 gene", "value": "No significant difference"},
      {"measurement": "effect on PRP gel disc breakdown, 20 mg/mL compared with 10 mg/mL", "setting": "PRP fibrin clot; 20 mg/mL tranexamic acid vs 10 mg/mL (Example 1)", "value": "even more beneficial effect"},
      {"measurement": "rate of PRP gel disc breakdown", "setting": "PRP fibrin clot; PRP gel discs with TXA 10 or 20 mg/ml vs pure PRP gel, diameter measured weekly over 21 days, physiological conditions", "value": "significantly reduced"},
      {"measurement": "synovial score (osteoarthritic synoviopathy) compared to placebo", "setting": "[1]; after 75 days, p=0.58 (TXA)", "value": "no statistically significant differences"},
      {"measurement": "meniscal histological score compared to placebo", "setting": "[1]; after 75 days, p=0.6 (TXA), p=0.07 (PRP alone), p=2.2*10-6 (PRP+TXA)", "value": "no statistically significant differences"},
      {"measurement": "radiological score compared with physiological serum", "setting": "[1]; rabbits sacrificed after 75 days, p=0.092 (PRP alone)", "value": "similar"},
      {"measurement": "expression of COLII (RQ) compared to placebo", "setting": "COL II gene", "value": "No significant difference"}
    ]}
  ]
}
